Columns and labels:
[1] = humans, transnasal, Cremophor EL vehicle; cited from earlier work
[2] = Pharmacokinetic test of lorazepam-containing nasal formulation in rabbit (bioavailability test); details: plasma, other: transnasal, 1.6 mg/kg
Method: Right before this experiment, rabbits (n=3) were weighed, and a mixed solution including 25 mg of ketamine and 4 mg of xylazine was intramuscularly injected to the rabbits per kilogram (Kg) in order to anesthetize the rabbits, and a catheter was fastened to each rabbit to collect blood from rabbits' otic artery. An intravenous injection was performed by administering the mixed solution to the rabbits via the rabbits' otic artery at a dose of 1 mg/kg for approximately 20 seconds. […] Then, each formulation was sprayed to the rabbits using a Pfeiffer nasal spry system.
Blood samples (1 Ml) were collected from the rabbits' otic artery at 0, 2, 5, 10, 20, 30, 45, 60 and 120 minutes after the intravenous injection and transnasal administration of each formulation. Each of the blood samples was centrifuged to separate rabbit plasma, which was stored at −20° C. until is will be used for analysis. In order to analyze the plasma samples, each of the plasma samples (0.5 Ml) was exactly transferred to a 1.5 Ml polypropylene centrifuge tube. […]
In this case, the lorazepam was set to a concentration of 9%, and was administered at a dose of 1.6 mg/kg. […] Each plasma sample pre-treated with acetonitrile was quantified under the following LC/MS/MS conditions. […] The ionization was analyzed in a positive mode using an electrospray ionization (ESI) method, and the ion spray temperature was set to 500° C.

CN1C(=O)CN=C(c2ccccc2)c2cc(Cl)ccc21 [diazepam]
Peak concentration versus intravenous administration [1]: lower than that observed after the intravenous administration

O=C1Nc2ccc(Cl)cc2C(c2ccccc2Cl)=NC1O (centres unmarked) [lorazepam]
bioavailability [2]: 35%
